# According to article PMC9206137, “Synergistic anti-SARS-CoV-2 activity of repurposed anti-parasitic drug combinations” (BMC Pharmacology & Toxicology, 2022):
# Values joined by “and” are separate entries in the source; they are usually repeats but may differ in a detail not shown here. Equal values may be shown once. Read-outs that look alike come from different tables or passages of the source.
# Assays:
# SARS-CoV-2 [1] = assay: microbe, parasite or virus in culture; format: cell-based; settings: for %inhibition (plaque assay) / % inhibition: replicates; for % inhibition: Calu-3 cells
# dengue virus = settings: read-out: IC50 against dengue virus, cited from earlier work
# Calu-3 cells = assay: Cell viability assay (MTT) in Calu-3 cells; settings: for %cell viability / cell viability: replicates; for cell viability: Calu-3 cells
# Method: (§1) Subsequently, the cell viability was assessed using MTT dyes (Invitrogen) in duplicate (Supplementary file 1). The procedure was described elsewhere. The viability of drug-treated cells was expressed as percent cell viability relative to 0.5% DMSO-treated cells.
# SARS-CoV-2 [2] = assay: Antiviral activity against SARS-CoV-2 in Vero E6 cells, plaque assay; format: cell-based; settings: Vero E6; for %inhibition (plaque assay): replicates
# [3] = calculated based on lung: plasma ratio in cattle; cited from earlier work
# SARS-CoV-2 [4] = assay: Antiviral activity against SARS-CoV-2 in Vero E6 cells, one-step qRT-PCR (single drugs, two-drug combinations, synergy analysis); settings: for %inhibition (qRT-PCR) / % inhibition: replicates; for % inhibition: Vero E6 cells
# [5] = tested on: plasma nonstructural protein 1; settings: dengue patients; cited from earlier work
# SARS-CoV-2 [6] = settings: cited from earlier work
# Vero E6 cells = assay: Cell viability assay (MTT) in Vero E6 cells; settings: for %cell viability / cell viability: replicates; for cell viability: Vero E6 cells
# Method: as §1
# [7] = humans; oral 200 μg/kg; mean ± SD; cited from earlier work
substance,measurement,setting,value
ivermectin,IC50,"SARS-CoV-2 [1]; Calu-3, 500 TCID50, plaque assay, single drug",0.2 µM
same,%inhibition (plaque assay),"SARS-CoV-2 [1]; Calu-3, ivermectin 0.048828 uM",7.34% and 7.50% and 6.92%
same,%inhibition (plaque assay),"SARS-CoV-2 [1]; Calu-3, ivermectin 0.195313 uM",43.75% and 44.69% and 42.02%
same,%inhibition (plaque assay),"SARS-CoV-2 [1]; Calu-3, ivermectin 0.390625 uM",55.86% and 56.30% and 55.45%
same,%inhibition (plaque assay),"SARS-CoV-2 [1]; Calu-3, ivermectin 0.78125 uM",63.14% and 86.03% and 74.50%
same,%inhibition (plaque assay),"SARS-CoV-2 [1]; Calu-3, ivermectin 1.5625 uM",90.72% and 80.25% and 82.92%
same,%inhibition (plaque assay),"SARS-CoV-2 [1]; Calu-3, ivermectin 3.125 uM",98.34% and 97.94% and 90.53%
same,% inhibition,SARS-CoV-2 [1]; Ivermectin 0.05 uM alone,26.67% (2×) and 33.33%
same,% inhibition,SARS-CoV-2 [1]; Ivermectin 0.10 uM alone,33.33% and 26.67% and 40.00%
same,% inhibition,SARS-CoV-2 [1]; Ivermectin 0.20 uM alone,40.00% and 66.67% and 53.33%
same,% inhibition,SARS-CoV-2 [1]; Ivermectin 0.40 uM alone,53.33% and 73.33% and 66.67%
same,IC50,dengue virus; Huh-7 cells,~4.64 µM
same,IC50,dengue virus; immortalized hepatocyte-like cell line,~5.33 µM
same,CC50,"Calu-3 cells; Calu-3, MTT, 48 hours",3.1 µM
same,%cell viability,"Calu-3 cells; Calu-3, ivermectin 0.048828 uM",101.77% and 102.10%
same,%cell viability,"Calu-3 cells; Calu-3, ivermectin 0.195313 uM",103.33%
same,%cell viability,"Calu-3 cells; Calu-3, ivermectin 0.390625 uM",106.67% and 102.92%
same,%cell viability,"Calu-3 cells; Calu-3, ivermectin 0.78125 uM",103.89%
same,%cell viability,"Calu-3 cells; Calu-3, ivermectin 1.5625 uM",100.11% and 106.94%
same,%cell viability,"Calu-3 cells; Calu-3, ivermectin 3.125 uM",41.94% and 53.47%
same,%cell viability,"Calu-3 cells; Calu-3, ivermectin 6.25 uM",6.67%
same,%cell viability,"Calu-3 cells; Calu-3, ivermectin 12.5 uM",6.53% and 6.39%
same,cell viability,Calu-3 cells; Ivermectin 0.05 uM alone,100.07 and 99.88
same,cell viability,Calu-3 cells; Ivermectin 0.10 uM alone,99.91 and 100.11
same,cell viability,Calu-3 cells; Ivermectin 0.20 uM alone,101.94 and 95.31
same,cell viability,Calu-3 cells; Ivermectin 0.40 uM alone,94.38 and 100.45
same,IC50,"SARS-CoV-2 [2]; MOI 0.01, 48 hours, single drug",1.23 µM
same,%inhibition (plaque assay),SARS-CoV-2 [2]; ivermectin 0.15625 uM,7.34% and 7.50% and 7.15%
same,%inhibition (plaque assay),SARS-CoV-2 [2]; ivermectin 0.3125 uM,29.78% and 21.00% and 25.31%
same,%inhibition (plaque assay),SARS-CoV-2 [2]; ivermectin 0.625 uM,30.26% (2×) and 32.64%
same,%inhibition (plaque assay),SARS-CoV-2 [2]; ivermectin 1.25 uM,52.64% and 56.27% and 48.59%
same,%inhibition (plaque assay),SARS-CoV-2 [2]; ivermectin 2.5 uM,63.02% and 62.70% and 66.77%
same,%inhibition (plaque assay),SARS-CoV-2 [2]; ivermectin 5 uM,78.39% and 83.51% and 83.02%
same,predicted maximum lung concentration,[3],0.0873 µM
same,%inhibition (qRT-PCR),"SARS-CoV-2 [4]; Vero E6, ivermectin 0.15625 uM",20.77% and 18.77% and 17.59%
same,%inhibition (qRT-PCR),"SARS-CoV-2 [4]; Vero E6, ivermectin 0.3125 uM",22.09% and 7.36% and 10.53%
same,%inhibition (qRT-PCR),"SARS-CoV-2 [4]; Vero E6, ivermectin 0.625 uM",17.18% and 18.46% and 16.20%
same,%inhibition (qRT-PCR),"SARS-CoV-2 [4]; Vero E6, ivermectin 1.25 uM",48.83% and 48.22% and 45.15%
same,%inhibition (qRT-PCR),"SARS-CoV-2 [4]; Vero E6, ivermectin 2.5 uM",68.53% and 77.48% and 81.10%
same,%inhibition (qRT-PCR),"SARS-CoV-2 [4]; Vero E6, ivermectin 5 uM",80.18% and 78.28% and 78.87%
same,% inhibition,SARS-CoV-2 [4]; Ivermectin 0.3 uM alone,24.74% and 21.54% and 19.89%
same,% inhibition,SARS-CoV-2 [4]; Ivermectin 0.6 uM alone,40.13% and 29.29% and 31.22%
same,% inhibition,SARS-CoV-2 [4]; Ivermectin 1.2 uM alone,46.41% and 46.78% and 47.88%
same,% inhibition,SARS-CoV-2 [4]; Ivermectin 2.4 uM alone,68.57% and 80.79% and 75.01%
same,IC50,"SARS-CoV-2 [4]; read-out: IC50 (μM) qRT-PCR, Vero E6, MOI 0.01, 48 hours, single drug",1.27 µM
same,level of plasma nonstructural protein 1,[5],reduce
same,reduction in SARS-CoV-2 replication in vitro,SARS-CoV-2 [6],up to 5000 fold
same,CC50,"Vero E6 cells; Vero E6, MTT, 48 hours",10.6 µM
same,%cell viability,"Vero E6 cells; Vero E6, ivermectin 0.15625 uM",102.24%
same,%cell viability,"Vero E6 cells; Vero E6, ivermectin 0.3125 uM",100.47% and 100.17%
same,%cell viability,"Vero E6 cells; Vero E6, ivermectin 0.625 uM",102.19%
same,%cell viability,"Vero E6 cells; Vero E6, ivermectin 1.25 uM",100.11% and 101.75%
same,%cell viability,"Vero E6 cells; Vero E6, ivermectin 2.5 uM",99.32%
same,%cell viability,"Vero E6 cells; Vero E6, ivermectin 5 uM",83.87% and 88.89%
same,%cell viability,"Vero E6 cells; Vero E6, ivermectin 10 uM",55.14% and 53.62% and 46.86%
same,%cell viability,"Vero E6 cells; Vero E6, ivermectin 20 uM",21.86% and 15.62% and 14.14%
same,%cell viability,"Vero E6 cells; Vero E6, ivermectin 40 uM",12.31% and 10.14% and 11.10%
same,cell viability,Vero E6 cells; Ivermectin 0.3 uM alone,100.47 and 100.17
same,cell viability,Vero E6 cells; Ivermectin 0.6 uM alone,102.19
same,cell viability,Vero E6 cells; Ivermectin 1.2 uM alone,100.11 and 101.75
same,cell viability,Vero E6 cells; Ivermectin 2.4 uM alone,99.32
same,maximum plasma concentration,[7],0.049 ± 0.02 µM
